pIC50, pKd: −log10 of the molar value.
How the values were obtained:
[1] = biological target: T1, catalytic domain of Human PARP (Homo sapiens, UniProt P09874); experiment: Biacore surface plasmon resonance affinity assay (dissociation constant KD); assay type: binding; details: pKD=-log(KD), KD in molar concentration; Biacore T100, 25° C.
T1 construct: The catalytic domain of Human PARP was cloned and prepared; made in house
Method: Dissociation Constant (KD) from Surface Plasmon Resonance
The catalytic domain of Human PARP was cloned and prepared as described in Kinoshita, T.; Nakanishi, I.; Warizaya, M.; Iwashita, A.; Kido, Y.; Hattori, K. and Fujii, T. 2006 FEBS Letters 556, 43-46. Purified enzyme was stored at −80° C. in 25 mM Tris(hydroxymethyl)aminomethane (Tris) pH 7.4, 150 mM NaCl, 2 mM dithiothreitol (DTT) at a concentration of 6 mg/ml.
Biacore affinity assays for test compounds were conducted on a Biacore T100 (GE Healthcare) as follows. A Series S Sensor Chip CM5 (part number BR-1006-68, GE Healthcare) was activated for amide coupling with an Amine Coupling Kit (part number BR-1000-50, GE Healthcare) as described by the manufacturer. The mobile phase buffer consisted of Biacore buffer HBS-P (part number BR-1003-68, GE Healthcare) supplemented with 1% v/v dimethylsulfoxide (DMSO), 0.5 mM Tris(2-carboxyethyl)phosphine hydrochloride (TCEP), and 5 mM MgCl2. Enzyme samples (2 μl/6 mg/ml) stored at −80° C. were diluted to 0.080 mg/ml with 10 mM 4-morpholineethanesulfonic acid (MES) pH 6.5 and then mounted on the activated Biacore CM5 chip at a flow rate of 10 μl/min for 240 seconds. When successfully mounted, a signal of approximately 8,000 reflective units was observed. Test compounds were diluted 9 times 2-fold serially in mobile phase buffer (listed above) at 1% v/v DMSO final to generate a concentration gradient bracketing their anticipated KDs. Biacore mounted PARP was given a 1 minute exposure (association phase) to various concentrations of test compounds to observe a steady state equilibrium or an on rate. The exposure was followed with a dissociation phase of 5 minutes. The association and dissociation phases were at a flow rate of 50 μl/min and a temperature of 25° C.
Parameters Rmax (response at saturation) and KD (binding constant) were calculated through a nonlinear least squares fitting of the equation to the data by use of the Biacore T100 analysis software.
Parameter optimization was through a nonlinear least squares analysis of the association phase Response=Rmax*(1−exp(−(kon[cmpd]+koff)*t)) and dissociation phase Response=[…] by use of the Biacore T100 analysis software. The binding constant KD was calculated from the definition KD=koff/kon

Jurkat cell line = experiment: PARP cellular chemopotentiation assay (MTS cell viability with and without TMZ); assay type: cell-based; details: ratio of EC50 for inhibition of cell viability without and with 100 μM TMZ; Jurkat cells, 96 hours of treatment
Procedure, shortened: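 Jurkat cells, 10,000/well, pre-cultured 24 h, then treated 96 h with serial compound dilutions (0.5% DMSO) with or without 100 μM TMZ. Viability by MTS conversion (OD490), normalized to DMSO controls; EC50 from curve fits, PF50 = EC50 without TMZ / EC50 with TMZ.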

PARP = biological target: T2, PARP (Homo sapiens, UniProt P09874); experiment: PARP ELISA colorimetric assay of inhibition of PARP catalytic activity (IC50); assay type: biochemical; details: pIC50=-log(IC50), IC50 in molar concentration; ELISA-based PARP kit, 10 minutes of catalysis
T2 construct: purchased Trevigen 4684-096-01 (enzyme); kit 4684-096-K HT
T2 sequence (P09874 whole entry): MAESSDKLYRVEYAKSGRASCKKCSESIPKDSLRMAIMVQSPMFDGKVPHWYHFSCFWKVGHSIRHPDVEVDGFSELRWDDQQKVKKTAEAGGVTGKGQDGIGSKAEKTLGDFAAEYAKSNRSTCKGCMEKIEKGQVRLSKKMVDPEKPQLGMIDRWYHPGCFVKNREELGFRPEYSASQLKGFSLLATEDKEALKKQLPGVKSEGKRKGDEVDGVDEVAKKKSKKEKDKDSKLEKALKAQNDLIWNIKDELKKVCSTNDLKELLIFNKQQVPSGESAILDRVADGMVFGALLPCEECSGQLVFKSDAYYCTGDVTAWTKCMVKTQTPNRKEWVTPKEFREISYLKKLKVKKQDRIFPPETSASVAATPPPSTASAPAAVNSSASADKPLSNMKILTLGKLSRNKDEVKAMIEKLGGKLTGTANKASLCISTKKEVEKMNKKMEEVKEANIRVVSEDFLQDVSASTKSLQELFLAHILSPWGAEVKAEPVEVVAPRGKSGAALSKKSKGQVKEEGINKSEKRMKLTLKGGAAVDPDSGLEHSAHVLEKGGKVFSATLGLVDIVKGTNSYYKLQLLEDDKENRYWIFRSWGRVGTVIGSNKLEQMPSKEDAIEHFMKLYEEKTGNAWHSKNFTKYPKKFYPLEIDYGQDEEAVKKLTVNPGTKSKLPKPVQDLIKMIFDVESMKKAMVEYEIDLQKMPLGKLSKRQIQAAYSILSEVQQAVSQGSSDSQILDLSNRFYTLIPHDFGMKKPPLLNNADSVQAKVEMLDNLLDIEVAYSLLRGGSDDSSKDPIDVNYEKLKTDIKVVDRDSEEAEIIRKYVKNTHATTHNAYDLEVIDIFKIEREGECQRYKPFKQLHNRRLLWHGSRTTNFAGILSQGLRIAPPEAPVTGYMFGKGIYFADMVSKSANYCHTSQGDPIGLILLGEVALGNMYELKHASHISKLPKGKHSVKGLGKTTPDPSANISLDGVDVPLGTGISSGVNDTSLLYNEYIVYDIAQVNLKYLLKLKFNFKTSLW
Procedure, shortened: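 Human PARP was added as a 0.1 nM solution to histone-coated wells with compound for a 10-min ambient preincubation. The reaction was started with 100 μM NAD+ solution plus activated DNA and run 10 min. PAR formation was detected by anti-PAR ELISA, colorimetric. IC50 came from a 12-point, 3-fold gradient fitted by nonlinear least squares to a Hill equation.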

T1 sequence (P09874 788-1014 limits assumed): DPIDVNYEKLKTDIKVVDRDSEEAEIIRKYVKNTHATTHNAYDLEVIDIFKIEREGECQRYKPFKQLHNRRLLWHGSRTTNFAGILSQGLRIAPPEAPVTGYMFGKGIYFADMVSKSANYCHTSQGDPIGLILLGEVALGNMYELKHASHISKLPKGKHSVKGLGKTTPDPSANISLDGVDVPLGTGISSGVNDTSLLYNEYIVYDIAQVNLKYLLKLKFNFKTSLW

SMILES	pKd [1]	PF50 (Jurkat cell line)	pIC50 (PARP)
O=C1Nc2cc(CN3CCC(c4ccc(Cl)cc4)CC3)cnc2N2CCC[C@@H]12 [Compound 3, (S)-3-((4-(4-chlorophenyl)piperidin-1-yl)methyl)-6a,7,8,9-tetrahydropyrido[3,2-e]pyrrolo[1,2-a]pyrazin-6(5H)-one]	6.10 to 7.50	>10	–
C[C@H]1C(=O)Nc2cc(CN3CC=C(c4ccc(Cl)cc4)CC3)cnc2N1C [Compound 52, (S)-7-((4-(4-chlorophenyl)-5,6-dihydropyridin-1(2H)-yl)methyl)-3,4-dimethyl-3,4-dihydropyrido[3,2-b]pyrazin-2(1H)-one]	> 7.50	≧0	–
C[C@H]1C(=O)Nc2cc(CN3CCC(c4ccccc4)CC3)cnc2N1C [Compound 54, (S)-3,4-dimethyl-7-((4-phenylpiperidin-1-yl)methyl)-3,4-dihydropyrido[3,2-b]pyrazin-2(1H)-one]	≤ 6.00	–	–
C[C@H]1C(=O)Nc2cc(CN3CC=C(c4ccc(F)cc4)CC3)cnc2N1C [Compound 56, (S)-7-((4-(4-fluorophenyl)-5,6-dihydropyridin-1(2H)-yl)methyl)-3,4-dimethyl-3,4-dihydropyrido[3,2-b]pyrazin-2(1H)-one]	> 7.50	≧0	–
C[C@H]1C(=O)Nc2cc(CN3CCN(c4cccc(Cl)c4)CC3)cnc2N1C [Compound 58, (S)-7-((4-(3-chlorophenyl)piperazin-1-yl)methyl)-3,4-dimethyl-3,4-dihydropyrido[3,2-b]pyrazin-2(1H)-one]	≤ 6.00	–	–
CC(C)N1c2ncc(CN3CC=C(c4ccc(Cl)cc4)CC3)cc2NC(=O)[C@@H]1C [Compound 60, (S)-7-((4-(4-chlorophenyl)-5,6-dihydropyridin-1(2H)-yl)methyl)-4-isopropyl-3-methyl-3,4-dihydropyrido[3,2-b]pyrazin-2(1H)-one]	≤ 6.00	–	–
CC(C)N1c2ncc(CN3CCN(c4ccc(Cl)cc4)CC3)cc2NC(=O)[C@@H]1C [Compound 61, (S)-7-((4-(4-chlorophenyl)piperazin-1-yl)methyl)-4-isopropyl-3-methyl-3,4-dihydropyrido[3,2-b]pyrazin-2(1H)-one]	≤ 6.00	–	–
CCNC(=O)c1cc(F)c(N2CCN(Cc3cnc4c(c3)NC(=O)[C@@H]3CCCN43)CC2)cc1F [Compound 124, (S)—N-ethyl-2,5-difluoro-4-(4-((6-oxo-5,6,6a,7,8,9-hexahydropyrido[3,2-e]pyrrolo[1,2-a]pyrazin-3-yl)methyl)piperazin-1-yl)benzamide]	–	≧0	≤ 7.30
CCNC(=O)c1ccc(N2CCN(Cc3cnc4c(c3)NC(=O)[C@@H]3CCCN43)CC2)cc1F [Compound 125, (S)—N-ethyl-2-fluoro-4-(4-((6-oxo-5,6,6a,7,8,9-hexahydropyrido[3,2-e]pyrrolo[1,2-a]pyrazin-3-yl)methyl)piperazin-1-yl)benzamide]	–	≧0	≤ 7.30
CCNC(=O)c1ccc(N2CCN(Cc3cnc4c(c3)NC(=O)[C@@H]3CCCN43)CC2)c(F)c1 [Compound 126, (S)—N-ethyl-3-fluoro-4-(4-((6-oxo-5,6,6a,7,8,9-hexahydropyrido[3,2-e]pyrrolo[1,2-a]pyrazin-3-yl)methyl)piperazin-1-yl)benzamide]	–	>5000	7.40 to 7.80
CCNC(=O)c1ccc(N2CCN(Cc3cnc4c(c3)NC(=O)[C@@H]3CCCN43)CC2)c(Cl)c1 [Compound 127, (S)-3-chloro-N-ethyl-4-(4-((6-oxo-5,6,6a,7,8,9-hexahydropyrido[3,2-e]pyrrolo[1,2-a]pyrazin-3-yl)methyl)piperazin-1-yl)benzamide]	–	>500	7.40 to 7.80
CNS(=O)(=O)c1ccc(N2CCN(Cc3cnc4c(c3)NC(=O)[C@@H]3CCCN43)CC2)cc1 [Compound 128, (S)—N-methyl-4-(4-((6-oxo-5,6,6a,7,8,9-hexahydropyrido[3,2-e]pyrrolo[1,2-a]pyrazin-3-yl)methyl)piperazin-1-yl)benzenesulfonamide]	–	≧0	≤ 7.30
Cc1cc(C#N)ccc1N1CCN(Cc2cnc3c(c2)NC(=O)[C@@H]2CCCN32)CC1 [Compound 129, (S)-3-methyl-4-(4-((6-oxo-5,6,6a,7,8,9-hexahydropyrido[3,2-e]pyrrolo[1,2-a]pyrazin-3-yl)methyl)piperazin-1-yl)benzonitrile]	–	>500	7.40 to 7.80
Cc1cc(F)ccc1N1CCN(Cc2cnc3c(c2)NC(=O)[C@@H]2CCCN32)CC1 [Compound 130, (S)-3-((4-(4-fluoro-2-methylphenyl)piperazin-1-yl)methyl)-6a,7,8,9-tetrahydropyrido[3,2-e]pyrrolo[1,2-a]pyrazin-6(5H)-one]	–	>2000	7.40 to 7.80
CNC(=O)c1ccc(N2CCN(Cc3cnc4c(c3)NC(=O)[C@@H]3CCCN43)CC2)c(F)c1 [Compound 131, (S)-3-fluoro-N-methyl-4-(4-((6-oxo-5,6,6a,7,8,9-hexahydropyrido[3,2-e]pyrrolo[1,2-a]pyrazin-3-yl)methyl)piperazin-1-yl)benzamide]	–	>500	≥ 7.90
O=C(NC1CC1)c1ccc(N2CCN(Cc3cnc4c(c3)NC(=O)[C@@H]3CCCN43)CC2)c(F)c1 [Compound 132, (S)—N-cyclopropyl-3-fluoro-4-(4-((6-oxo-5,6,6a,7,8,9-hexahydropyrido[3,2-e]pyrrolo[1,2-a]pyrazin-3-yl)methyl)piperazin-1-yl)benzamide]	–	>2000	≥ 7.90
CC(C)NC(=O)c1ccc(N2CCN(Cc3cnc4c(c3)NC(=O)[C@@H]3CCCN43)CC2)c(F)c1 [Compound 133, (S)-3-fluoro-N-isopropyl-4-(4-((6-oxo-5,6,6a,7,8,9-hexahydropyrido[3,2-e]pyrrolo[1,2-a]pyrazin-3-yl)methyl)piperazin-1-yl)benzamide]	–	>2000	7.40 to 7.80
O=C(NC1CC1)c1ccc(N2CCN(Cc3cnc4c(c3)NC(=O)[C@@H]3CCCN43)CC2)c(Cl)c1 [Compound 134, (S)-3-chloro-N-cyclopropyl-4-(4-((6-oxo-5,6,6a,7,8,9-hexahydropyrido[3,2-e]pyrrolo[1,2-a]pyrazin-3-yl)methyl)piperazin-1-yl)benzamide]	–	>5000	7.40 to 7.80
CC(C)NC(=O)c1ccc(N2CCN(Cc3cnc4c(c3)NC(=O)[C@@H]3CCCN43)CC2)c(Cl)c1 [Compound 135, (S)-3-chloro-N-isopropyl-4-(4-((6-oxo-5,6,6a,7,8,9-hexahydropyrido[3,2-e]pyrrolo[1,2-a]pyrazin-3-yl)methyl)piperazin-1-yl)benzamide]	–	>5000	7.40 to 7.80
CNC(=O)c1ccc(N2CCN(Cc3cnc4c(c3)NC(=O)[C@@H]3CCCN43)CC2)c(Cl)c1 [Compound 136, (S)-3-chloro-N-methyl-4-(4-((6-oxo-5,6,6a,7,8,9-hexahydropyrido[3,2-e]pyrrolo[1,2-a]pyrazin-3-yl)methyl)piperazin-1-yl)benzamide]	–	>5000	≥ 7.90
CCNC(=O)c1ccc(N2CCN(Cc3cnc4c(c3)NC(=O)[C@@H]3CCCN43)CC2)c(C)c1 [Compound 137, (S)—N-ethyl-3-methyl-4-(4-((6-oxo-5,6,6a,7,8,9-hexahydropyrido[3,2-e]pyrrolo[1,2-a]pyrazin-3-yl)methyl)piperazin-1-yl)benzamide]	–	>5000	≥ 7.90
CNC(=O)c1ccc(N2CCN(Cc3cnc4c(c3)NC(=O)[C@@H]3CCCN43)CC2)c(C)c1 [Compound 141, (S)—N,3-dimethyl-4-(4-((6-oxo-5,6,6a,7,8,9-hexahydropyrido[3,2-e]pyrrolo[1,2-a]pyrazin-3-yl)methyl)piperazin-1-yl)benzamide]	–	>500	≥ 7.90
